# Measurements as given in PubChem BioAssay (NCI).
#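 Step 1: Grow cells in 96-well plates. Step 2: Expose to compound for 48 hours at 5 concentrations. Step 3: Interpolate endpoints linearly; if unreached, use highest concentration. TGI: total growth inhibition.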
# Experiments:
# Assay in all cases: NCI tumour cell line growth inhibition, 48 h
# 786-0 renal = test system: 786-0 renal
# A549 NSCLC = test system: A549 NSCLC
# ACHN renal = test system: ACHN renal
# BT-549 breast = test system: BT-549 breast
# CCRF-CEM leukemia = test system: CCRF-CEM leukemia
# COLO 205 colon = test system: COLO 205 colon
# DU-145 prostate = test system: DU-145 prostate
# HCC-2998 colon = test system: HCC-2998 colon
# HCT-15 colon = test system: HCT-15 colon
# HL-60(TB) leukemia = test system: HL-60(TB) leukemia
# HOP-92 NSCLC = test system: HOP-92 NSCLC
# HS 578T breast = test system: HS 578T breast
# HT29 colon = test system: HT29 colon
# IGROV1 ovarian = test system: IGROV1 ovarian
# K-562 leukemia = test system: K-562 leukemia
# KM12 colon = test system: KM12 colon
# LOX IMVI melanoma = test system: LOX IMVI melanoma
# M14 melanoma = test system: M14 melanoma
# MALME-3M melanoma = test system: MALME-3M melanoma
# MCF7 breast = test system: MCF7 breast
# MDA-MB-231 breast = test system: MDA-MB-231 breast
# MDA-MB-435 = test system: MDA-MB-435
# MDA-N = test system: MDA-N
# MOLT-4 leukemia = test system: MOLT-4 leukemia
# NCI-H226 lung = test system: NCI-H226 lung
# NCI-H23 lung = test system: NCI-H23 lung
# NCI-H460 lung = test system: NCI-H460 lung
# NCI-H522 lung = test system: NCI-H522 lung
# OVCAR-3 ovarian = test system: OVCAR-3 ovarian
# OVCAR-4 ovarian = test system: OVCAR-4 ovarian
# OVCAR-5 ovarian = test system: OVCAR-5 ovarian
# OVCAR-8 ovarian = test system: OVCAR-8 ovarian
# RPMI-8226 leukemia = test system: RPMI-8226 leukemia
# RXF 393 renal = test system: RXF 393 renal
# SF-268 CNS = test system: SF-268 CNS
# SK-MEL-2 melanoma = test system: SK-MEL-2 melanoma
# SK-MEL-28 melanoma = test system: SK-MEL-28 melanoma
# SK-MEL-5 melanoma = test system: SK-MEL-5 melanoma
# SN12C renal = test system: SN12C renal
# SNB-19 CNS = test system: SNB-19 CNS
# SNB-75 CNS = test system: SNB-75 CNS
# SR leukemia = test system: SR leukemia
# SW-620 colon = test system: SW-620 colon
# T-47D breast = test system: T-47D breast
# TK-10 renal = test system: TK-10 renal
# U251 CNS = test system: U251 CNS
# UACC-257 melanoma = test system: UACC-257 melanoma
# UACC-62 melanoma = test system: UACC-62 melanoma
# UO-31 renal = test system: UO-31 renal
# A498 renal = test system: A498 renal
# CAKI-1 renal = test system: CAKI-1 renal
# EKVX NSCLC = test system: EKVX NSCLC
# HCT-116 colon = test system: HCT-116 colon
# HOP-62 NSCLC = test system: HOP-62 NSCLC
# PC-3 prostate = test system: PC-3 prostate
# SF-295 CNS = test system: SF-295 CNS
# SF-539 CNS = test system: SF-539 CNS
# SK-OV-3 ovarian = test system: SK-OV-3 ovarian
# NCI/ADR-RES ovarian = test system: NCI/ADR-RES ovarian
smiles,measurement,setting,value
CN1CCN(C(=S)N(C(=O)c2cccs2)c2ccccc2)CC1,TGI,786-0 renal,> 100 µM
same,TGI,A549 NSCLC,> 100 µM
same,TGI,ACHN renal,> 100 µM
same,TGI,BT-549 breast,> 100 µM
same,TGI,CCRF-CEM leukemia,> 100 µM
same,TGI,COLO 205 colon,> 100 µM
same,TGI,DU-145 prostate,> 100 µM
same,TGI,HCC-2998 colon,> 100 µM
same,TGI,HCT-15 colon,> 100 µM
same,TGI,HL-60(TB) leukemia,> 100 µM
same,TGI,HOP-92 NSCLC,> 100 µM
same,TGI,HS 578T breast,> 100 µM
same,TGI,HT29 colon,> 100 µM
same,TGI,IGROV1 ovarian,> 100 µM
same,TGI,K-562 leukemia,> 100 µM
same,TGI,KM12 colon,> 100 µM
same,TGI,LOX IMVI melanoma,> 100 µM
same,TGI,M14 melanoma,> 100 µM
same,TGI,MALME-3M melanoma,> 100 µM
same,TGI,MCF7 breast,> 100 µM
same,TGI,MDA-MB-231 breast,> 100 µM
same,TGI,MDA-MB-435,> 100 µM
same,TGI,MDA-N,> 100 µM
same,TGI,MOLT-4 leukemia,> 100 µM
same,TGI,NCI-H226 lung,> 100 µM
same,TGI,NCI-H23 lung,> 100 µM
same,TGI,NCI-H460 lung,> 100 µM
same,TGI,NCI-H522 lung,> 100 µM
same,TGI,OVCAR-3 ovarian,> 100 µM
same,TGI,OVCAR-4 ovarian,> 100 µM
same,TGI,OVCAR-5 ovarian,> 100 µM
same,TGI,OVCAR-8 ovarian,> 100 µM
same,TGI,RPMI-8226 leukemia,> 100 µM
same,TGI,RXF 393 renal,> 100 µM
same,TGI,SF-268 CNS,> 100 µM
same,TGI,SK-MEL-2 melanoma,> 100 µM
same,TGI,SK-MEL-28 melanoma,> 100 µM
same,TGI,SK-MEL-5 melanoma,> 100 µM
same,TGI,SN12C renal,> 100 µM
same,TGI,SNB-19 CNS,> 100 µM
same,TGI,SNB-75 CNS,> 100 µM
same,TGI,SR leukemia,> 100 µM
same,TGI,SW-620 colon,> 100 µM
same,TGI,T-47D breast,> 100 µM
same,TGI,TK-10 renal,> 100 µM
same,TGI,U251 CNS,> 100 µM
same,TGI,UACC-257 melanoma,> 100 µM
same,TGI,UACC-62 melanoma,> 100 µM
same,TGI,UO-31 renal,> 100 µM
Cc1nn(C(=O)Cc2ccccc2)c2c1C(c1ccc3ccccc3c1O)SC(N)=N2 (stereo not drawn),TGI,A498 renal,> 100 µM
same,TGI,A549 NSCLC,> 100 µM
same,TGI,ACHN renal,> 100 µM
same,TGI,BT-549 breast,> 100 µM
same,TGI,CAKI-1 renal,> 100 µM
same,TGI,CCRF-CEM leukemia,64.2 µM
same,TGI,COLO 205 colon,> 100 µM
same,TGI,DU-145 prostate,> 100 µM
same,TGI,EKVX NSCLC,> 100 µM
same,TGI,HCC-2998 colon,> 100 µM
same,TGI,HCT-116 colon,> 100 µM
same,TGI,HCT-15 colon,> 100 µM
same,TGI,HL-60(TB) leukemia,> 100 µM
same,TGI,HOP-62 NSCLC,> 100 µM
same,TGI,HS 578T breast,> 100 µM
same,TGI,HT29 colon,> 100 µM
same,TGI,IGROV1 ovarian,> 100 µM
same,TGI,K-562 leukemia,> 100 µM
same,TGI,KM12 colon,> 100 µM
same,TGI,LOX IMVI melanoma,> 100 µM
same,TGI,M14 melanoma,> 100 µM
same,TGI,MCF7 breast,> 100 µM
same,TGI,MDA-MB-231 breast,> 100 µM
same,TGI,MDA-MB-435,> 100 µM
same,TGI,MDA-N,> 100 µM
same,TGI,MOLT-4 leukemia,> 100 µM
same,TGI,NCI-H226 lung,> 100 µM
same,TGI,NCI-H23 lung,> 100 µM
same,TGI,NCI-H460 lung,> 100 µM
same,TGI,NCI-H522 lung,> 100 µM
same,TGI,OVCAR-8 ovarian,> 100 µM
same,TGI,PC-3 prostate,> 100 µM
same,TGI,RPMI-8226 leukemia,> 100 µM
same,TGI,SF-268 CNS,> 100 µM
same,TGI,SF-295 CNS,> 100 µM
same,TGI,SF-539 CNS,> 100 µM
same,TGI,SK-MEL-28 melanoma,> 100 µM
same,TGI,SK-MEL-5 melanoma,> 100 µM
same,TGI,SK-OV-3 ovarian,> 100 µM
same,TGI,SN12C renal,> 100 µM
same,TGI,SNB-19 CNS,> 100 µM
same,TGI,SNB-75 CNS,> 100 µM
same,TGI,SR leukemia,> 100 µM
same,TGI,SW-620 colon,> 100 µM
same,TGI,T-47D breast,> 100 µM
same,TGI,TK-10 renal,> 100 µM
same,TGI,UACC-257 melanoma,> 100 µM
same,TGI,UACC-62 melanoma,> 100 µM
same,TGI,UO-31 renal,> 100 µM
Cc1ccc(-c2c(C#N)c(N)[nH]c(=S)c2C#N)cc1,TGI,786-0 renal,77.5 µM
same,TGI,A498 renal,> 100 µM
same,TGI,A549 NSCLC,> 100 µM
same,TGI,ACHN renal,> 100 µM
same,TGI,BT-549 breast,> 100 µM
same,TGI,CAKI-1 renal,> 100 µM
same,TGI,COLO 205 colon,69 µM
same,TGI,DU-145 prostate,> 100 µM
same,TGI,EKVX NSCLC,66.1 µM
same,TGI,HCC-2998 colon,> 100 µM
same,TGI,HCT-116 colon,> 100 µM
same,TGI,HCT-15 colon,> 100 µM
same,TGI,HL-60(TB) leukemia,52.8 µM
same,TGI,HOP-62 NSCLC,> 100 µM
same,TGI,HOP-92 NSCLC,> 100 µM
same,TGI,HS 578T breast,51.4 µM
same,TGI,HT29 colon,> 100 µM
same,TGI,IGROV1 ovarian,> 100 µM
same,TGI,K-562 leukemia,> 100 µM
same,TGI,KM12 colon,> 100 µM
same,TGI,LOX IMVI melanoma,> 100 µM
same,TGI,M14 melanoma,> 100 µM
same,TGI,MALME-3M melanoma,62.2 µM
same,TGI,MCF7 breast,> 100 µM
same,TGI,MDA-MB-231 breast,> 100 µM
same,TGI,MDA-MB-435,65.4 µM
same,TGI,MDA-N,41.3 µM
same,TGI,MOLT-4 leukemia,76.9 µM
same,TGI,NCI-H226 lung,> 100 µM
same,TGI,NCI-H23 lung,> 100 µM
same,TGI,NCI-H460 lung,> 100 µM
same,TGI,NCI-H522 lung,55.6 µM
same,TGI,NCI/ADR-RES ovarian,> 100 µM
same,TGI,OVCAR-3 ovarian,> 100 µM
same,TGI,OVCAR-4 ovarian,> 100 µM
same,TGI,OVCAR-5 ovarian,> 100 µM
same,TGI,OVCAR-8 ovarian,> 100 µM
same,TGI,PC-3 prostate,> 100 µM
same,TGI,RPMI-8226 leukemia,65.8 µM
same,TGI,RXF 393 renal,46.5 µM
same,TGI,SF-268 CNS,> 100 µM
same,TGI,SF-295 CNS,> 100 µM
same,TGI,SF-539 CNS,> 100 µM
same,TGI,SK-MEL-2 melanoma,72.6 µM
same,TGI,SK-MEL-28 melanoma,> 100 µM
same,TGI,SK-MEL-5 melanoma,> 100 µM
same,TGI,SN12C renal,76 µM
same,TGI,SNB-19 CNS,> 100 µM
same,TGI,SR leukemia,66.9 µM
same,TGI,SW-620 colon,> 100 µM
same,TGI,TK-10 renal,> 100 µM
same,TGI,U251 CNS,> 100 µM
same,TGI,UACC-257 melanoma,> 100 µM
same,TGI,UACC-62 melanoma,> 100 µM
same,TGI,UO-31 renal,> 100 µM
